Data: ChEMBL document CHEMBL5500375, “Design, synthesis, and evaluation of N1,N3-dialkyldioxonaphthoimidazoliums as antibacterial agents against methicillin-resistant Staphylococcus aureus” (Eur J Med Chem, 2024)
Active and inactive are the calls of the source. The rule behind the calls is not given here.

Assays:
Staphylococcus aureus [1] = assay: Bactericidal activity against methicillin-resistant Staphylococcus aureus SA3 assessed as as reduction in colony forming unit at 0.78 ug/ml measured upto 10 hrs by time-kill assay; type: functional, organism-based; conditions: dose 0.78 µg/ml
Staphylococcus aureus [2] = assay: Antibacterial agents against methicillin-sensitive Staphylococcus aureus SA1 assessed as absence of growth at 0.19 ug/ml measured after overnight incubation under anaerobic condition in presence of N-acetylcysteine by micro-dilution method; type: functional, organism-based; conditions: dose 0.19 µg/ml
Staphylococcus aureus [3] = assay: Antibacterial agents against methicillin-resistant Staphylococcus aureus USA300 assessed as absence of growth measured after 18 hrs by micro-dilution method; type: functional
Staphylococcus aureus [4] = assay: Anti-biofilim activity against methicillin-sensitive Staphylococcus aureus Newman assessed decrease in biofilm growth at 1 to 10 times of MIC concentration measured after 12 to 24 hrs incubation; type: functional, organism-based; conditions: time 12-24 hrs
Staphylococcus aureus [5] = assay: In vivo antibacterial activity against methicillin-resistant Staphylococcus aureus SA3 infected in dorsal thorax of Drosophila melanogaster strain Oregon R assessed as median survival time of Drosophila at 0.04 to 0.2 mg/ml measured upto 72 hrs; type: functional; conditions: dose 0.04-0.2 mg/ml
[6] = Cytotoxicity against human HDFa cells assessed as cell survival measured after 72 hrs incubation by Cell Titer-Glo luminescent assay; type: toxicity, cell-based
Staphylococcus aureus [7] = assay: Antibacterial agents against methicillin-resistant Staphylococcus aureus SA3 assessed as absence of growth at 0.19 ug/ml measured after overnight incubation under anaerobic condition in presence of N-acetylcysteine by micro-dilution method; type: functional, organism-based; conditions: dose 0.19 µg/ml
Staphylococcus aureus [8] = assay: Antibacterial agents against methicillin-sensitive Staphylococcus aureus SA1 assessed as absence of growth measured after 18 hrs by micro-dilution method; type: functional
Staphylococcus aureus [9] = assay: In vivo antibacterial activity against methicillin-resistant Staphylococcus aureus SA3 infected in dorsal thorax of Drosophila melanogaster strain Oregon R assessed as survival time of Drosophila at 0.04 mg/ml measured upto 72 hrs relative to control; type: functional, organism-based
Staphylococcus aureus [10] = assay: Bactericidal activity against methicillin-resistant Staphylococcus aureus SA3 assessed as as reduction in colony forming unit at 0.78 ug/ml measured within 10 hrs by time-kill assay; type: functional; conditions: dose 0.78 µg/ml
Escherichia coli [11] = assay: Antibacterial agents against gram negative Escherichia coli MG1655 assessed as reduction in colony forming unit at 0.78 ug/ml measured upto 10 hrs in presence of 0.2 ug/ml Polymyxin B by LB agar medium method; type: functional; conditions: dose 0.78 µg/ml
Staphylococcus aureus [12] = assay: Antibacterial agents against c5-resistant mutant of methicillin-resistant Staphylococcus aureus SA3 m3 assessed as absence of growth measured after 18 hrs by micro-dilution method; type: functional
[13] = Therapeutic index, ratio of IC50 for HEK293 cells to MIC for […] activity against methicillin-resistant Staphylococcus aureus SA3; type: toxicity; conditions: human, read-out: TI
Staphylococcus aureus [14] = assay: Antibacterial activity against methicillin-resistant Staphylococcus aureus SA3 assessed as fold increase in MIC measured after 16 passages to MIC during first passage; type: functional
Escherichia coli [15] = assay: Antibacterial agents against gram negative Escherichia coli MG1655 assessed as reduction in colony forming unit at 0.78 ug/ml measured upto 10 hrs by LB agar medium method; type: functional, organism-based; conditions: dose 0.78 µg/ml
Staphylococcus aureus [16] = assay: Antibacterial activity against c5-resistant mutant of methicillin-resistant Staphylococcus aureus SA3 m6 assessed as fold increase in MIC measured after 12 passages to MIC during first passage; type: functional
Staphylococcus aureus [17] = assay: Antibacterial agents against c5-resistant mutant of methicillin-resistant Staphylococcus aureus SA3 m2 assessed as absence of growth measured after 18 hrs by micro-dilution method; type: functional
Staphylococcus aureus [18] = assay: Antibacterial activity against methicillin-resistant Staphylococcus aureus SA3 assessed as resistance by measuring antibacterial activity after 10 passages at 0.39 ug/ml by emergence of bacterial resistance assay; type: functional, organism-based; conditions: dose 0.39 µg/ml
Escherichia coli [19] = assay: Antibacterial agents against gram negative Escherichia coli MG1655 assessed as reduction in colony forming unit at 0.78 ug/ml measured upto 10 hrs in presence of 0.05 to 0.2 ug/ml Polymyxin B by LB agar medium method; type: functional, organism-based; conditions: dose 0.78 µg/ml
Bacillus subtilis = assay: Antibacterial agents against Bacillus subtilis PS380 assessed as absence of growth measured after 18 hrs by micro-dilution method; type: functional
Staphylococcus aureus [20] = assay: Antibacterial agents against c5-resistant mutant of methicillin-resistant Staphylococcus aureus SA3 m3 assessed as absence of growth at 0.19 ug/ml measured after overnight incubation under anaerobic condition in presence of N-acetylcysteine by micro-dilution method; type: functional, organism-based; conditions: dose 0.19 µg/ml
Staphylococcus aureus [21] = assay: Induction of ROS generation in methicillin-resistant Staphylococcus aureus USA300 using hydroxyphenyl fluorescein at 0.19 ug/ml under anaerobic condition; type: functional, organism-based; conditions: dose 0.19 µg/ml
[22] = Metabolic stability in human liver microsomes assessed as intrinsic clearance at 2 uM preincubated for 5 mins followed by NADPH addition and measured for 35 mins by LC/MS analysis; type: ADME, Microsome; conditions: read-out: CLH
Staphylococcus aureus [23] = assay: Antibacterial activity against methicillin-resistant Staphylococcus aureus SA3 assessed as absence of growth measured after 16 passages by emergence of bacterial resistance assay; type: functional
Pseudomonas aeruginosa = assay: Antibacterial agents against gram negative Pseudomonas aeruginosa PA14 assessed as reduction in colony forming unit at 0.78 ug/ml measured upto 10 hrs in presence of 0.1 ug/ml Polymyxin B by LB agar medium method; type: functional, organism-based; conditions: dose 0.78 µg/ml
Staphylococcus aureus [24] = assay: Antibacterial agents against c5-resistant mutant of methicillin-resistant Staphylococcus aureus SA3 m1 assessed as absence of growth measured after 18 hrs by micro-dilution method; type: functional
Staphylococcus aureus [25] = assay: Induction of ROS generation in methicillin-resistant Staphylococcus aureus SA3 using hydroxyphenyl fluorescein at 0.09 ug/ml under anaerobic condition; type: functional, organism-based; conditions: dose 0.09 µg/ml, TDE = time-dependent effect
Staphylococcus aureus [26] = assay: Antibacterial agents against c5-resistant mutant of methicillin-resistant Staphylococcus aureus SA3 m6 assessed as absence of growth at 0.19 ug/ml measured after overnight incubation under anaerobic condition in presence of N-acetylcysteine by micro-dilution method; type: functional, organism-based; conditions: dose 0.19 µg/ml
Staphylococcus aureus [27] = assay: Anti-biofilim activity against methicillin-resistant Staphylococcus aureus USA300 assessed decrease in biofilm growth at 1 to 10 times of MIC concentration measured after 12 to 24 hrs incubation; type: functional, organism-based; conditions: time 12-24 hrs
Staphylococcus aureus [28] = assay: Reduction in virulent activity of methicillin-resistant Staphylococcus aureus SA3 infected in dorsal thorax of Drosophila melanogaster strain Oregon R at 0.2 mg/ml measured upto 72 hrs; type: functional, organism-based
Staphylococcus aureus [29] = assay: Bactericidal activity against methicillin-resistant Staphylococcus aureus SA3 assessed as as reduction in colony forming unit at 0.1 to 0.4 ug/ml measured after 2 to 4 hrs by time-kill assay; type: functional, organism-based; conditions: dose 0.1-0.4 µg/ml, time 2-4 hrs
Staphylococcus aureus [30] = assay: Antibacterial agents against methicillin-resistant Staphylococcus aureus SA3 assessed as absence of growth measured after 18 hrs by micro-dilution method; type: functional
[31] = In vivo toxicity in Drosophila melanogaster strain Oregon R assessed as survival rate at 0.1 to 1 mg/ml measured upto 72 hrs relative to control; type: organism-based; conditions: Oregon R, at 0.1 to 1 mg/mL, dose 0.1-1 mg/ml
Staphylococcus aureus [32] = assay: Induction of ROS generation in methicillin-resistant Staphylococcus aureus SA3 using hydroxyphenyl fluorescein at 0.19 ug/ml under anaerobic condition; type: functional, organism-based; conditions: dose 0.19 µg/ml
Staphylococcus aureus [33] = assay: Anti-biofilim activity against methicillin-sensitive Staphylococcus aureus SA1 assessed decrease in biofilm growth at 1 to 10 times of MIC concentration measured after 12 to 24 hrs incubation; type: functional, organism-based; conditions: time 12-24 hrs

In the case of `CCCCCCCCn1c2c([n+](Cc3ccccc3)c1C)C(=O)c1ccccc1C2=O.[Br-]`, the Activity (Staphylococcus aureus [1]) is reported as “Active”, the Activity (Staphylococcus aureus [2]) is reported as “inactive” and the MIC (Staphylococcus aureus [3]) is reported as 0.39 µg/mL. For the same molecule, the Activity (Staphylococcus aureus [4]) was “Active”, the Time (Staphylococcus aureus [5]) was 56 h and the IC50 at 72 h [6] was 1060 nM. For the same molecule, the Activity (Staphylococcus aureus [7]) was “inactive”, the MIC (Staphylococcus aureus [8]) was 0.19 µg/mL and the Activity (Staphylococcus aureus [9]) was “Active”. The Activity (Staphylococcus aureus [10]) was 3 log10CFU/ml, the Activity (Escherichia coli [11]) was 4 log10CFU/ml and the MIC (Staphylococcus aureus [12]) was 6.25 µg/mL. The selectivity ratio [13] was 0.8, the “fold change (FC)” value (Staphylococcus aureus [14]) was 4 and the Activity (Escherichia coli [15]) was “inactive”. The “fold change (FC)” value (Staphylococcus aureus [16]) was 2, the MIC (Staphylococcus aureus [17]) was 6.25 µg/mL and the Activity (Staphylococcus aureus [18]) was “Active”. For the same molecule, the Activity (Escherichia coli [19]) was “inactive”, the MIC (Bacillus subtilis) was 0.39 µg/mL and the Activity (Staphylococcus aureus [20]) was “inactive”. For the same molecule, the Activity (Staphylococcus aureus [21]) was “Active”, the CLint scaled at 2 µM [22] was 39 mL/min/kg and the MIC (Staphylococcus aureus [23]) was 1.56 µg/mL. The Activity (Pseudomonas aeruginosa) was “Active”, the MIC (Staphylococcus aureus [24]) was 6.25 µg/mL and the Activity (Staphylococcus aureus [25]) was “Tde”. For the same molecule, the Activity (Staphylococcus aureus [26]) was “inactive”, the Activity (Staphylococcus aureus [27]) was “Active” and the Activity (Staphylococcus aureus [28]) was “inactive”. For the same molecule, the Activity (Staphylococcus aureus [29]) was “inactive”, the MIC (Staphylococcus aureus [30]) was 0.39 µg/mL and the survival at 72 h [31] was 75%. For the same molecule, the Activity (Staphylococcus aureus [32]) was “Active” and the Activity (Staphylococcus aureus [33]) was “Active”.
